This is an account of results in patent US11629175B2, “Method for preparing PHFS-like Tau aggregates” (ECOLE POLYTECHNIQUE FEDERALE DE LAUSANNE (EPFL), priority 2018, dated 2023).

For assay [1], the system named is hippocampal rat primary neurons. Briefly: Immunocytochemistry (ThS) in transfected rat primary hippocampal neurons. In kind it is cell-based. Particulars: 1 μM, 3 days. The method, then:
Next, the findings of the present invention were validated using a cellular model, the hippocampal rat primary neurons. Primary neurons were transfected with full length Tau and K18 ΔK280, and cells were treated with R2, R2-seeded Tau or R2-seeded K18 at a concentration of 1 μM, […]. After 3 days, the coverslips were processed for ICC. […] Although the intracellular ThS signal is relatively high, it is difficult to distinguish between uptake of exogenous material and seeding of endogenous and/or overexpressed Tau/K18 ΔK280, especially since the concentration used here is relatively high (1 μM).
Hippocampi from PO WT rat (OFA SD, Charles River) were dissociated and triturated in papain-containing medium. After centrifugation at 400 g for 2 min, neurons were plated in MEM supplemented with 10% fetal calf serum (FCS) on Cultrex™ poly-L-lysine (Trevigen)-coated coverslips at 1.5×10^5 cells/ml (6 well-plates, 3 ml per well). After 4 h, medium was replaced with Neurobasal/B27 medium. Viral infections were performed two weeks, and transfection one week after plating.
One week old hippocampal rat primary neurons seeded on coverslips coated with Cultrex poly-L-lysine were transfected with Tau or K18 ΔK280 ([…]) using lipofectamine 2000 reagent (Invitrogen). 24 h after transfection, cells were treated with 1 μM monomeric R2, R2 seeds, R2-seeded Tau, R2-seeded K18 and further incubated for 1 or 3 days. Cells were then fixed in 100% methanol at −20° C. for 10 min and rinsed three times in PBS. After blocking with 3% BSA in PBST for 30 min at RT, cells were incubated with ThS (Sigma) at 0.1 mg/ml in PBS for 10 min and rinsed 5 times with 80% Ethanol and once with PBS. Coverslips were then incubated with primary antibodies for 2 h at RT (see Table M.1). The cells were rinsed five times with PBST and subsequently incubated with the secondary antibodies at a dilution of 1/800 in PBST and DAPI at 2 μg/ml (Life technologies). The cells were washed five times in PBST, once in PBS and rinsed in MilliQ water before mounting in PVA medium with DABCO (Sigma). The cells were then examined with confocal laser-scanning microscope (LSM 700, Zeiss) and analyzed using Zen software.

Assay [2] deals with tau biosensor cells. Briefly: Tau biosensor cell assay (FRET flow cytometry, confocal microscopy), seeding capacity. Particulars: for Integrated FRET Density (IFD): FRET flow cytometry, 2 experimental repeats, 3 technical replicates. It counts as cell-based. The text has this: Based on Furman and Diamond, 2017. FRET and Flow Cytometry Assays to Measure Proteopathic Seeding Activity in Biological Samples. Caroline Smet-Nocca (ed.), Tau Protein: Methods and Protocols, Methods in Molecular Biology, vol. 1523, DOI 10.1007/978-1-4939-6598-4_23, © Springer Science+Business Media New York 2017).
Methods: FRET flow cytometry Biosensor cell assay (Furman and Diamond, 2017) was used to assess the seeding capacity of fibrillar R2 compared to R2 monomer, and fibrillar rPHF compared to 4R2N monomer
Methods: cells were transduced with transduction buffer, R2 monomer, rPHFs or R2 fibrils following protocol by Furman and Diamond (2017).
On the technique in general: A flow cytometer gives signals particle by particle.

Assay [3] addresses T1, monomeric Tau 4R2N (Homo sapiens, UniProt P10636).
T1 construct: made in house; host or cells: E. coli (pET-28a(+))
Briefly: R2-seeded Tau aggregation with commercially available inhibitors, ThS fluorescence and EM. It counts as biochemical. Particulars: Tau 4R2N 5 μM + R2 seeds 5 μM; inhibitor 1, 10, 100 μM; end timepoint ThS. The protocol: The aggregation kinetic is followed using ThS fluorescence. a. The list and structure of the 5 inhibitors used in this proof of concept assay. b. As an example, the full kinetic of Tau incubated in presence of R2 seed with LMTX at 1 μM (orange), 10 μM (grey) or 100 μM (yellow) or in absence of inhibitor (blue). c. End timepoint ThS value of Tau incubated in presence of R2 with the five selected inhibitors at 1 μM (orange), 10 μM (grey) or 100 μM (yellow) or in absence of inhibitor (blue). The inhibition is dose-dependent, the inhibitors show various inhibition potencies (e.g. low for BSc3094, high for LMTX). […] Corresponding EM micrographs confirm the absence of significant fibrilization in the presence of most inhibitors. The presence of oligomeric species corroborate the hypothesis that Tau is locked in OFF-pathway conformations. The scale bars are 500 [nm].
To do so, R2 seeds were incubated with monomeric Tau protein in presence or absence of a set commercially available know Tau aggregation inhibitors (ATPZ, LMTX, Pyrochatecol violet, BSc3094 and myricetin, FIG. 18 a) at three different conventions (1 μM, 10 μM and 100 μM). The aggregation kinetic was followed using ThS fluorescence. As an example, the full kinetic of Tau incubated in presence of R2 seed, with LMTX at the three different concentration is presented in FIG. 18 b. […]

The target of assay [4] is T1, monomeric Tau 4R2N. Description: Seeding of monomeric Tau with R2 or R2-derived peptide seeds, EM. Particulars: 37° C.; for seeding of monomeric Tau / formation of rPHFs (EM): 10 μM sonicated peptide fibrils + 10 μM monomeric Tau. It counts as biochemical. The protocol:
The seeding of Tau 4R2N (SEQ ID No: 5) by R2 was performed in presence of 10 μM of sonicated peptide fibrils, added to 10 μM of the monomeric soluble Tau, at 37° C. under stagnant conditions. It was observed that R2 is capable of seeding the aggregation of full length Tau (FIG. 3).
Having determined which of the R2-derived peptides are capable of aggregation and characterized their aggregation kinetics and fibril morphology, it was next investigated whether some of the R2-derived peptides could induce the seeding of Tau and K18, and whether it would lead to the formation of rPHFs fibrils. In order to reach this goal, fibrils of the peptides that were able to aggregate (R2 dC5, dC9, dC10, dC15 K6N and dPHF6*) were sonicated and added to monomeric Tau or K18 at molar ratios of 10 μM: 10 μM (i.e. under the same experimental conditions as those leading to R2-seeding of Tau and K18).
Unless stated otherwise, 100 μM R2 or R2-derived peptide were dissolved in 10 mM phosphate, 50 mM NaF, 0.5 mM DTT and pH-adjusted to 7.4. The solution was then vortexed and the supernatant was incubated in presence of heparin sodium salt at molar ratio 1:4 (heparin:peptide) (Applichem GmbH) at 37° C., either with or without constant orbital agitation (1000 rpm, Peqlab, Thriller).
The obtained seeds were added at a final concentration of 10 μM to 10 μM of monomeric Tau or K18 in 10 mM phosphate, 50 mM NaF, 0.5 mM DTT and incubated 37° C.

Where [5] appears, read: neurons transfected with K18 ΔK280.
Where [6] appears, read: neurons transfected with WT Tau 4R2N.

T1 sequence (P10636 1-441 isoform P10636-8): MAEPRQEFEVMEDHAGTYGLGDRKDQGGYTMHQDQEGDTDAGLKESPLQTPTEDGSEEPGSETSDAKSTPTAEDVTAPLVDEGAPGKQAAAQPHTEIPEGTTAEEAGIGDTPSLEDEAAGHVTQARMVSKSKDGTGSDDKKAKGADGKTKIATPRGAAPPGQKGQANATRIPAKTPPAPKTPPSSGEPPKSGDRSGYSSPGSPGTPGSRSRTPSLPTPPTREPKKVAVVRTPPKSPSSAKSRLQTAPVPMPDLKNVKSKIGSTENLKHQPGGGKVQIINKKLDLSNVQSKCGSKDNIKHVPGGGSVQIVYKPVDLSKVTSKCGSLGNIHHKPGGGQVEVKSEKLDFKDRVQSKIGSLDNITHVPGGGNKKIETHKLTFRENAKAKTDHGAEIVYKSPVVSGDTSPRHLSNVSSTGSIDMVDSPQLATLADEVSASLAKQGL

On to “rPHF fibrils: recombinant PHFs: Tau fibrils formed by seeding monomeric Tau with R2 seeds”, for which the “ThS signal in transfected neurons” value in assay [1] (setting [5]) and in assay [1] (setting [6]) was “strong ThS signal” each time. In addition, the “localisation of ThS signal” value in assay [1] (setting [5]) and in assay [1] (setting [6]) was “intracellular” in each case. Further, in assay [2], the “Integrated FRET Density (IFD)” value is “increase in the IFD”. Further, the “aggregates in transduced biosensor cells (confocal microscopy)” value in assay [2] (transduction per Furman and Diamond) is “bright aggregated puncta”.

As to “4R2N monomer: longest adult human Tau isoform, 441 amino acid, SEQ ID No 5, monomeric”, the “Integrated FRET Density (IFD)” value in assay [2] is 0.

On to “R2-seeded K18: K18 (SEQ ID No 6) fibrils formed by seeding with R2 seeds”, for which, in assay [1] (setting [5]), the “ThS signal in transfected neurons” value is recorded as “strong ThS signal” and the “localisation of ThS signal” value is given as “intracellular”. Moreover, in assay [1] (setting [6]), the “ThS signal in transfected neurons” value is listed as “strong ThS signal” and the “localisation of ThS signal” value was “intracellular”.

As for `CN(C)c1ccc2c(c1)Sc1cc(N(C)C)ccc1N2.CS(=O)(=O)O.CS(=O)(=O)O` [LMTX], in assay [3], the inhibition potency entry is reported as “high”.

Regarding `O=C(NNc1nc(-c2ccc([N+](=O)[O-])cc2)cs1)c1ccc2nc[nH]c2c1` [BSc3094], the inhibition potency result in assay [3] is given as “low”.

Consider “R2 extended and mutated to the SGGG motif: R2 PGGG-extended with P301S mutation (SGGG), SEQ ID No 4 (VQIINKKLDLSNVQSKCGSKDNIKHVSGGG; listed as Homo sapiens)”, for which, in assay [4], the “seeding of monomeric Tau / formation of rPHFs (EM)” value is “allowed the formation of rPHFs”.

Take R2: Tau repeat peptide R2, SEQ ID No 1: in assay [4] (10 μM R2 seeds + 10 μM Tau 4R2N, stagnant), the “incubation time until PHFs-like fibrils observed by EM” value is recorded as “less than 4 h”. For the same molecule, the “seeding of monomeric Tau / formation of rPHFs (EM)” value in assay [4] was “allowed the formation of rPHFs”.
